One experiment concerns the target T1, Flt-3 (Homo sapiens, UniProt P36888).
T1 construct: purchased Upstate, Dundee, UK
T1 sequence (P36888 564-993 limits assumed): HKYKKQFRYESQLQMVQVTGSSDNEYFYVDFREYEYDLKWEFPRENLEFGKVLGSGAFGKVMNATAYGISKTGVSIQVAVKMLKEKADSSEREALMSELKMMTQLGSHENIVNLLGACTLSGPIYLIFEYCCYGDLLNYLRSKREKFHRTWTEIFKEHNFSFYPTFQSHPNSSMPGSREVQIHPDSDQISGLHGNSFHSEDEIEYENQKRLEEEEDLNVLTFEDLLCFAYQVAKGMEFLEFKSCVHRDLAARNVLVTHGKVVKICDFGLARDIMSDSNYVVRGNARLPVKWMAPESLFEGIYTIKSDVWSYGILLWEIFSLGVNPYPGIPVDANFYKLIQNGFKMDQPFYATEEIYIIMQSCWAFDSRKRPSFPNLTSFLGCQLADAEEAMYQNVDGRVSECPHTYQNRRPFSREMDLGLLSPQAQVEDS
Description: Flt3 kinase assay. The conditions noted are these: Table 3; read-out: Kinase inhibition Flt3. In kind it is biochemical. The method, then: This was achieved by measurement of incorporation of radioactive phosphate from ATP into myelin basic protein (MBP) substrate, upon phosphorylation by commercially obtained Flt-3 Upstate, Dundee, UK). Assays were performed using 96-well plates and appropriate assay buffers (20 mM Tris, 25 mM β-glycerophosphate, 5 mM EGTA, 1 mM DTT, 1 mM sodium vanadate, pH 7.5), into which were added 5 ng of active enzyme with 0.4 mg/ml substrate (MBP). The reactions were initiated by addition of MgATP mix (15 mM MgCl2+100 μM ATP with 15-25 kBq per well of [γ-^32P]-ATP) and mixtures incubated for 30 min at 30° C. Reactions were stopped by addition of an equal volume of 75 mM aq orthophosphoric acid, followed by filtration through p81 filterplates (Whatman Polyfiltronics, Kent, UK). After washing 4 times with 75 mM aq orthophosphoric acid, plates were dried, scintillant added and incorporated radioactivity measured in a scintillation counter (TopCount, Packard Instruments, Pangbourne, Berks, UK). Compounds for kinase assay were made up as 10 mM stocks in DMSO and diluted into 10% DMSO in assay buffer. Data was analysed using curve-fitting software (XLfit version 4.0.2, IDBS, Guildford, Surrey, UK) to determine IC50 values (concentration of test compound which inhibits kinase activity by 50%).

The next experiment addresses CDK7/cyclin H (Homo sapiens, UniProt P50613). As to the kind of experiment: CDK 7 assay. Particulars: Table 3; read-out: Kinase inhibition CDK7H. In kind it is biochemical. The method, then:
CTD peptide substrate (biotinyl-Ahx-(Tyr-Ser-Pro-Thr-Ser-Pro-Ser)4-NH2; 1-2 mg/mL) and recombinant human CDK7/cyclin H, CDK9/cyclin TI, or CDK9/cyclin K (0.5-2 μg) were incubated for 45 min at 30° C. in the presence of varying amounts of test compound in 20 mM MOPS pH 7.2, 25 mM β-glycerophosphate, 5 mM EGTA, 1 mM DTT, 1 mM sodium vanadate, 15 mM MgCl2, and 100 μM ATP (containing a trace amount of ^32PγATP) in a total volume of 25 μL in a 96-well microtiter plate. The reaction was stopped by placing the plate on ice for 2 min. Avidin (50 μg) was added to each well, and the plate was incubated at room temp for 30 min. The samples were transferred to a 96-well P81 filter plate, and washed (4×200 μL per well) with 75 mM phosphoric acid. Microscint 40 scintillation liquid (50 μL) was added to each well, and the amount of ^32P incorporation for each sample was measured using a Packard Topcount microplate scintillation counter.

The target of the next experiment is T2, aurora-B (Homo sapiens, UniProt Q96GD4).
T2 construct: purchased Upstate, Dundee, UK
T2 sequence (Q96GD4 whole entry): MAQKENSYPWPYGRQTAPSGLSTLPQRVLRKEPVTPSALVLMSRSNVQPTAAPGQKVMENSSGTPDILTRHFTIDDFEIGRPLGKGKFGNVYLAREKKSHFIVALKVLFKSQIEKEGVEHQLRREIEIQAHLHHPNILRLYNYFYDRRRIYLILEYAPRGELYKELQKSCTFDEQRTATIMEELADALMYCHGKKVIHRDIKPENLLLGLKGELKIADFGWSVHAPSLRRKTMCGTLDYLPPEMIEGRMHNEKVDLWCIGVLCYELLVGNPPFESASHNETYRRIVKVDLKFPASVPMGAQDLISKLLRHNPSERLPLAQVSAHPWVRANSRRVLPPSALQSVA
Description: Aurora-B (human) kinase assay. The format is biochemical. The conditions noted are these: Table 3; read-out: Kinase inhibition Aurora B. On the procedure: This was achieved by measurement of incorporation of radioactive phosphate from ATP into Kemptide substrate (LRRASLG), upon phosphorylation by commercially obtained aurora-B (human, Upstate, Dundee, UK). Assays were performed using 96-well plates and appropriate assay buffers (20 mM Tris, 25 mM β-glycerophosphate, 5 mM EGTA, 1 mM DTT, 1 mM sodium vanadate, pH 7.5), into which were added 75 ng of pre-activated enzyme with 500 μM substrate (Kemptide). The reactions were initiated by addition of MgATP mix (15 mM MgCl2+100 μM ATP with 15-25 kBq per well of [γ-^32P]-ATP) and mixtures incubated for 60 min at 30° C. Reactions were stopped by addition of an equal volume of 75 mM aq orthophosphoric acid, followed by filtration through p81 filterplates (Whatman Polyfiltronics, Kent, UK). After washing 4 times with 75 mM aq orthophosphoric acid, plates were dried, scintillant added and incorporated radioactivity measured in a scintillation counter (TopCount, Packard Instruments, Pangbourne, Berks, UK). Compounds for kinase assay were made up as 10 mM stocks in DMSO and diluted into 10% DMSO in assay buffer. Data was analysed using curve-fitting software (XLfit version 4.0.2, IDBS, Guildford, Surrey, UK) to determine IC50 values (concentration of test compound which inhibits kinase activity by 50%).
Aurora-B (human, Upstate, Dundee, UK) was pre-activated immediately prior to kinase assay in appropriate buffers (20 mM Tris, 25 mM β-glycerophosphate, 5 mM EGTA, 1 mM DTT, 1 mM sodium vanadate, pH 7.5) by incubating 15 μg of enzyme with 4 μg INCENP (Upstate, Dundee, UK) in the presence of MgATP mix (15 mM MgCl2+100 μM ATP) for 15 min at 30° C.

The next experiment has as its system Mia-PaCa-2. Description: MTT cytotoxicity assay, Mia-PaCa-2. In kind it is cell-based. Particulars: Homo sapiens, after incubation. On the procedure:
(§1) The compounds of the invention were subjected to a standard cellular proliferation assay using human tumour cell lines obtained from the ATCC (American Type Culture Collection, 10801 University Boulevard, Manessas, Va. 20110-2209, USA). […] C.; Thomas, D. G.; Darling, J. L. Anti Cancer Drugs 1996, 7, 331-8; Loveland, B. E.; Johns, T. G.; Mackay, 1. R.; Vaillant, F.; Wang, Z. X.; Hertzog, P. J. Biochemistry International 1992, 27, 501-10). In short: cells were seeded into 96-well plates according to doubling time and incubated overnight at 37° C. […] MTT was made up as a stock of 5 mg/mL in cell media and filter-sterilised. Media was removed from cells followed by a wash with 200 μL PBS. MTT solution was then added at 20 μL per well and incubated in the dark at 37° C. for 4 h MTT solution was removed and cells again washed with 200 μL PBS. MTT dye was solubilised with 200 μL per well of DMSO with agitation. Absorbance was read at 540 nm and data analysed using curve-fitting software (GraphPad Prism version 3.00 for Windows, GrapbPad Software, San Diego Calif. USA) to determine IC50 values (concentration of test compound which inhibits cell growth by 50%).
On the technique in general: Formazan colour is commonly taken as a measure of viable cells.

For a further experiment, the system named is A2780. As to the kind of experiment: MTT cytotoxicity assay, A2780. The format is cell-based. Particulars: Homo sapiens, after incubation. The method, then: as §1
Another experiment has as its target CDK2/cyclin E (Homo sapiens, UniProt P24941). As to the kind of experiment: Kinase assay CDK2/cyclin E. The format is biochemical. The conditions noted are these: Table 3; read-out: Kinase inhibition CDK2E. The method, then: The compounds from the examples above were investigated for their ability to inhibit the enzymatic activity of various protein kinases. This was achieved by measurement of incorporation of radioactive phosphate from ATP into appropriate polypeptide substrates. Recombinant protein kinases and kinase complexes were produced or obtained commercially. Assays were performed using 96-well plates and appropriate assay buffers (typically 25 mM β-glycerophosphate, 20 mM MOPS, 5 mM EGTA, 1 mM DTT, 1 mM […], pH 7.4), into which were added 2-4 μg of active enzyme with appropriate substrates. The reactions were initiated by addition of Mg/ATP mix (15 mM MgCl2+100 μM ATP with 30-50 kBq per well of [γ-^32P]-ATP) and mixtures incubated as required at 30° C. Reactions were stopped on ice, followed by filtration through p81 filterplates or GF/C filterplates (Whatman Polyfiltronics, Kent, UK). After washing 3 times with 75 mM aq orthophosphoric acid, plates were dried, scintillant added and incorporated radioactivity measured in a scintillation counter (TopCount, Packard Instruments, Pangbourne, Berks, UK). Compounds for kinase assay were made up as 10 mM stocks in DMSO and diluted into 10% DMSO in assay buffer. Data was analysed using curve-fitting software (GraphPad Prism version 3.00 for Windows, GraphPad Software, San Diego Calif. USA) to determine IC50 values (concentration of test compound which inhibits kinase activity by 50%).

A further experiment deals with PKC-α (Homo sapiens, UniProt P17252). The conditions noted are these: reported in reference [74]; cited from earlier work.
For another experiment, the target named is PKC-δ (Homo sapiens, UniProt Q05655). The conditions noted are these: reported in reference [74]; cited from earlier work.
PKC-δ, sequence (Q05655 whole entry): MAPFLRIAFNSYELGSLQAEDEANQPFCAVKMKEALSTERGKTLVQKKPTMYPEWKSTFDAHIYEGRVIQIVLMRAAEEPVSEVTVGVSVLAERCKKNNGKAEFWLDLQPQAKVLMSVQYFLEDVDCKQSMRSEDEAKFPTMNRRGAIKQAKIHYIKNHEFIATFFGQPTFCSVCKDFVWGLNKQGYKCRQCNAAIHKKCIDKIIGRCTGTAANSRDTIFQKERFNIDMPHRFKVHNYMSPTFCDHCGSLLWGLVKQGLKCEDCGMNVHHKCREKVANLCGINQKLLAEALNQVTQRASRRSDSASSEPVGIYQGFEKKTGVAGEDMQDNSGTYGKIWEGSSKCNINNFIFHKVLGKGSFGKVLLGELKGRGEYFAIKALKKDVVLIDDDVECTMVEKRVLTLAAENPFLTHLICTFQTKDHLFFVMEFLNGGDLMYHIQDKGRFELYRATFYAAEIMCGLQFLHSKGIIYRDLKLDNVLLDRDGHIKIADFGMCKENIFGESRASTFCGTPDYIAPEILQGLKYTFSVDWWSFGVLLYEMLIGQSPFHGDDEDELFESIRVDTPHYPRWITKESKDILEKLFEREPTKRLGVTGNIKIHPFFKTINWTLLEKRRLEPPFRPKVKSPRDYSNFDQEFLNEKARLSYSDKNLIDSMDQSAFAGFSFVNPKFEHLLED
The next experiment addresses EGF-R (Homo sapiens, UniProt P00533). Particulars: reported in reference [74]; cited from earlier work.

EGF-R, sequence (P00533 25-1210, species assumed): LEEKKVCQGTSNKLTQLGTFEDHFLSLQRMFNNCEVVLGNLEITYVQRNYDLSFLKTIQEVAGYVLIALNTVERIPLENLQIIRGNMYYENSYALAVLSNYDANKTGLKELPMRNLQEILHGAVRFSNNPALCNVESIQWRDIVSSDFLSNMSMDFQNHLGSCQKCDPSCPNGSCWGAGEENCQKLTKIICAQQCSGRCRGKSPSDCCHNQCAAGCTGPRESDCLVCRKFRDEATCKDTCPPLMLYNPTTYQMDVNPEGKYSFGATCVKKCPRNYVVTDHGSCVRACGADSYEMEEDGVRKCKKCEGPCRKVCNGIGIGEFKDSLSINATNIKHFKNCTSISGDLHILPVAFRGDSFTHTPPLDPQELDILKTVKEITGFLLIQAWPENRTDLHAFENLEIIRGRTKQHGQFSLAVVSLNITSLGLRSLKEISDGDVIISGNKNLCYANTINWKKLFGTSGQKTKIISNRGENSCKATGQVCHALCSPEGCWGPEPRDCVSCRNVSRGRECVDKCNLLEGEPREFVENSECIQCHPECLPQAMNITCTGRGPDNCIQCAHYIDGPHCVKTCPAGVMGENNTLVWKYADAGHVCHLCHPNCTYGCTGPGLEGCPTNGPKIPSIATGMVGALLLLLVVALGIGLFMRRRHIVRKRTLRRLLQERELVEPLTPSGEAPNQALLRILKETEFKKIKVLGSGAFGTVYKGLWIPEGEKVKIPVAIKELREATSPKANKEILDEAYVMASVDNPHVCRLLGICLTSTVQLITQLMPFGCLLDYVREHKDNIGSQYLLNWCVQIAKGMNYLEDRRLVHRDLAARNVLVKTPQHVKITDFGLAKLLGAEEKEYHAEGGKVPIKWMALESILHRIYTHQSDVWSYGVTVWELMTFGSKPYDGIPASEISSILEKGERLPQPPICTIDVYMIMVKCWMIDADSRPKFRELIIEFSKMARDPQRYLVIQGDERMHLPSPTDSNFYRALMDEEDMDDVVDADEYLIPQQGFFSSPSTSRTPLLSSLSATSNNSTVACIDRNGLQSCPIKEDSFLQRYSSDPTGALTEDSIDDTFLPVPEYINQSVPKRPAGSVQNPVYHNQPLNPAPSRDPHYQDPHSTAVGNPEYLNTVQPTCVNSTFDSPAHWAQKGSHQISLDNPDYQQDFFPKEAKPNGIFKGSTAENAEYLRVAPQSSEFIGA
CDK7/cyclin H, sequence (P50613 whole entry): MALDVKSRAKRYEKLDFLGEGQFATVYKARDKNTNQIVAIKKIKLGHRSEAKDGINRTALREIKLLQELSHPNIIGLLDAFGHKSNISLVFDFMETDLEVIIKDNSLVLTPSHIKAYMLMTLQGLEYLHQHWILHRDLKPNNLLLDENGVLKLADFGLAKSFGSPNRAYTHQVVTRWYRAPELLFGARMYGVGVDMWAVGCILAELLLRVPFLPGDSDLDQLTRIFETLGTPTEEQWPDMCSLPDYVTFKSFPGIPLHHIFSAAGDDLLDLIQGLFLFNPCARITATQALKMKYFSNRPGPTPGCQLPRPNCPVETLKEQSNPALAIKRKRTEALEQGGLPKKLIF
CDK7/cyclin H, sequence (P51946 whole entry partner): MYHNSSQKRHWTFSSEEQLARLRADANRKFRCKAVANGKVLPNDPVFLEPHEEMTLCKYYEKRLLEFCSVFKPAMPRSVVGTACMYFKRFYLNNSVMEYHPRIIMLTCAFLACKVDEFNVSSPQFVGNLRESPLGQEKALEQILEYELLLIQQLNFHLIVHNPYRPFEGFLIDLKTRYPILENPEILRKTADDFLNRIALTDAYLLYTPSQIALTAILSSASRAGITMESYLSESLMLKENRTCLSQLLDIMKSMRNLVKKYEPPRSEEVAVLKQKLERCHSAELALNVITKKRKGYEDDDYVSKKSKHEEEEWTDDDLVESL

As for `c1ccc(CN2CCN(c3ccc(Nc4nccc(-c5c[nH]c6ccccc56)n4)cc3)CC2)cc1` [Compound 8, 4-(1H-indol-3-yl)-N-(4-benzylpiperazin-1-ylphenyl)pyrimidin-2-amine], the IC50 on Flt-3 amounted to 0.0788 µM; at CDK7/cyclin H, 6.04 µM; at aurora-B it was 1.41 µM; in the experiment on Mia-PaCa-2, 5.46 µM; in the experiment on A2780, 5.43 µM.

Regarding `Cc1cc(N2CCOCC2)ccc1Nc1nccc(-c2c[nH]c3ccccc23)n1` [Compound 11, 4-(1H-indol-3-yl)-N-(2-methyl-4-morpholin-4-ylphenyl)pyrimidin-2-amine], the IC50 at Flt-3 came out at 0.726 µM; at CDK2/cyclin E, 0.332 µM; in the experiment on Mia-PaCa-2 it was 6.82 µM; in the experiment on A2780, 4.66 µM.

Turning to `FC(F)C(F)(F)Oc1cccc(Nc2nccc(-c3c[nH]c4ccccc34)n2)c1` [[4-(1H-indol-3-yl)-pyrimidin-2-yl]-[3-(1,1,2,2-tetrafluoro-ethoxy)-phenyl]-amine], on PKC-α, the “kinase inhibition PKC-α” value is reported as “shown to inhibit”. Also, the “kinase inhibition PKC-δ” value on PKC-δ is recorded as “shown to inhibit”. Further, the “kinase inhibition EGF-R” value at EGF-R is listed as “shown to inhibit”.

The values are drawn from patent US20090318446A1, “4-(1H-Indol-3-yl)-Pyrimidin-2-Ylamine Derivatives and Their Use in Therapy” (Cyclacel Limited, priority 2005, published 2009).
